Values of other authors in patent US11470860B2, “Animal feeds containing specific glycolipids” (PATHWAY INTERMEDIATES LIMITED, priority 2016, dated 2022).

Conditions: for stability versus pH: aqueous medium

stability versus pH	SMILES	solubility in aqueous medium (dependence on pH)
stable across a wider pH range	CC1CCCCCC/C=C\CCCCCCCC(=O)OC2C(CO)OC(OC3C(O1)OC(CO)C(O)C3O)C(O)C2O (stereo not drawn) [lactonised sophorolipids]	
instability at pH higher than 7.0	CC(CCCCCC/C=C\CCCCCCCC(=O)O)OC1OC(CO)C(O)C(O)C1OC1OC(CO)C(O)C(O)C1O (stereo not drawn) [Acidic sophorolipids]	not readily soluble in aqueous medium at acidic pH but become soluble at higher pH
